system: HuH-7 replicon cells 5–15 and 9–13 (HCV replication); test: Inhibition of viral replication in HuH-7 replicon cells (HCV RNA / GAPDH RNA by multiplex RT-PCR); assay type: cell-based; conditions: Hepatitis C virus, 72 h; inhibiting 50% of replication; HuH-7 replicon cells, 3 days; read-out: IC50
How it was run: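 HCV and GAPDH RNA were measured by multiplex TaqMan RT-PCR (HCV 5′ untranslated region) after 3-day compound treatment at 37 °C, final 100 μM–1 μM in 1% DMSO. Cells were plated 24 h beforehand at 7×10^3/well. Read-out: HCV-to-GAPDH ratio expressed as percent control versus untreated cells.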

First: CCOc1ccc(CC(=O)N/N=C/c2ccccc2OS(=O)(=O)c2ccc(C(F)(F)F)cc2)cc1 [Compound 67, 2-((E)-{2-[2-(4-ethoxyphenyl)acetyl]hydrazono}methyl)-phenyl 4-(trifluoromethyl)benzenesulfonate]
Second: CS(=O)(=O)c1ccc(CC(=O)N/N=C/c2ccccc2OS(=O)(=O)c2ccc(C(F)(F)F)cc2)cc1 [Compound 69, 2-[(E)-(2-{2-[4-(methylsulfonyl)phenyl]acetyl}hydrazono)-methyl]phenyl 4-(trifluoromethyl)benzenesulfonate]
The IC50 of the first is lower: 5 to 50 µM for the first, greater than 50 µM for the second. The first is the more potent here.

`O=C(Cc1ccc2ccccc2c1)N/N=C/c1ccccc1OS(=O)(=O)c1ccc(C(F)(F)F)cc1` [Compound 68, 2-((E)-{2-[2-(2-naphthyl)acetyl]hydrazono}methyl)phenyl4-(trifluoromethyl)benzenesulfonate] and `O=C(N/N=C/c1ccccc1OS(=O)(=O)c1ccc(C(F)(F)F)cc1)c1cccc2ccccc12` [Compound 71, 2-{(E)-[2-(1-naphthoyl)hydrazono]methyl}phenyl 4-(trifluoromethyl)benzenesulfonate] cannot be ordered by IC50: less than 5 µM for the first, less than 5 µM for the second.

First: COc1ccc(CC(=O)N/N=C/c2ccccc2OS(=O)(=O)c2ccc(C(F)(F)F)cc2)cc1Br [Compound 70, 2-((E)-{2-[2-(3-bromo-4-methoxyphenyl)acetyl]hydrazono}methyl)-phenyl 4-(trifluoromethyl)benzenesulfonate]
Second: COc1ccccc1C(=O)N/N=C/c1ccccc1OS(=O)(=O)c1ccc(C(F)(F)F)cc1 [Compound 87, 2-{(E)-[2-(2-methoxybenzoyl)hydrazono]methyl}phenyl4-(trifluoromethyl)benzenesulfonate]
The IC50 of the first is lower: less than 5 µM for the first, greater than 50 µM for the second. The first is the more potent here.

`O=C(N/N=C/c1ccccc1OS(=O)(=O)c1ccc(C(F)(F)F)cc1)c1cc(Cl)ccc1Cl` [Compound 72, 2-{(E)-[2-(2,5-dichlorobenzoyl)hydrazono]methyl}phenyl4-(trifluoromethyl)benzenesulfonate] and `O=C(N/N=C/c1ccccc1OS(=O)(=O)c1ccc(C(F)(F)F)cc1)c1ccc(Cl)cc1Cl` [Compound 74, 2-{(E)-[2-(2,4-dichlorobenzoyl)hydrazono]methyl}phenyl4-(trifiuoromethyl)benzenesulfonate] cannot be ordered by IC50: less than 5 µM for the first, less than 5 µM for the second.

`O=C(N/N=C/c1ccccc1OS(=O)(=O)c1ccc(C(F)(F)F)cc1)c1ccccc1Cl` [Compound 73, 2-{(E)-[2-(2-chlorobenzoyl)hydrazono]methyl}phenyl 4-(trifluoromethyl)benzenesulfonate] and `O=C(N/N=C/c1ccccc1OS(=O)(=O)c1ccc(C(F)(F)F)cc1)c1ccccc1Br` [Compound 88, 2-{(E)-[2-(2-bromobenzoyl)hydrazono]methyl}phenyl4-(trifluoromethyl)benzenesulfonate] cannot be ordered by IC50: less than 5 µM for the first, less than 5 µM for the second.

First: O=C(N/N=C/c1ccccc1OS(=O)(=O)c1ccc(C(F)(F)F)cc1)OCc1ccccc1 [Compound 75, benzyl (2E)-2-[2-({[4-(trifluoromethyl)phenyl]sulfonyl}oxy)-benzylidene]hydrazinecarboxylate]
Second: O=C(N/N=C/c1ccccc1OS(=O)(=O)c1ccc(C(F)(F)F)cc1)c1ccccc1F [Compound 90, 2-{(E)-[2-(2-fluorobenzoyl)hydrazono]methyl}phenyl 4-(trifluoromethyl)benzenesulfonate]
The IC50 of the first is lower: less than 5 µM for the first, 5 to 50 µM for the second. The first is the more potent here.

`O=C(N/N=C/c1ccccc1OS(=O)(=O)c1ccc(C(F)(F)F)cc1)c1cccnc1` [Compound 76, 2-{(E)-[2-(pyridin-3-ylcarbonyl)hydrazono]methyl}phenyl 4-(trifluoromethyl)benzenesulfonate] and `Cc1ncccc1C(=O)N/N=C/c1ccccc1OS(=O)(=O)c1ccc(C(F)(F)F)cc1` [Compound 92, 2-((E)-{2-[(2-methylpyridin-3-yl)carbonyl]hydrazono}methyl)phenyl 4-(trifluoromethyl)benzenesulfonate] fall in the same range of IC50: 5 to 50 µM for the first, 5 to 50 µM for the second.

`O=C(N/N=C/c1ccccc1OS(=O)(=O)c1ccc(C(F)(F)F)cc1)c1ccccc1[N+](=O)[O-]` [Compound 77, 2-{(E)-[2-(2-nitrobenzoyl)hydrazono]methyl}phenyl 4-(trifluoromethyl)benzenesulfonate] and `Cc1ccccc1C(=O)N/N=C/c1ccccc1OS(=O)(=O)c1ccc(C(F)(F)F)cc1` [Compound 100, 2-{(E)-[2-(2-methylbenzoyl)hydrazono]methyl}phenyl4-(trifluoromethyl)benzenesulfonate] cannot be ordered by IC50: less than 5 µM for the first, less than 5 µM for the second.

`Cc1ccc(S(=O)(=O)N/N=C/c2ccccc2OS(=O)(=O)c2ccc(C(F)(F)F)cc2)cc1` [Compound 78, 2-((E)-{2-[(4-methylphenyl)sulfonyl]hydrazono}methyl)-phenyl 4-(trifluoromethyl)benzenesulfonate] and `CN(C)c1ccc(C(=O)N/N=C/c2ccccc2OS(=O)(=O)c2ccc(C(F)(F)F)cc2)cc1` [Compound 79, 2-((E)-{2-[4-(dimethylamino)benzoyl]hydrazono}methyl)-phenyl 4-(trifluoromethyl)benzenesulfonate] fall in the same range of IC50: 5 to 50 µM for the first, 5 to 50 µM for the second.

`C/C(=N\NC(=O)Cc1cccc(Cl)c1)c1ccccc1OS(=O)(=O)c1ccc(C(F)(F)F)cc1` [Compound 81, 2-{(1E)-N-[(3-chlorophenyl)acetyl]ethanehydrazonoyl}-phenyl 4-(trifluoromethyl)benzenesulfonate] and `O=C(Cc1cccc(-n2cccc2)c1)N/N=C/c1ccccc1OS(=O)(=O)c1ccc(C(F)(F)F)cc1` [Compound 97, 2-[(E)-(2-{2-[3-(1H-pyrrol-1-yl)phenyl]acetyl}hydrazono)methyl]phenyl4-(trifluoromethyl)benzenesulfonate] cannot be ordered by IC50: greater than 50 µM for the first, greater than 50 µM for the second.

First: O=C(Cc1nc(-c2cnccn2)no1)N/N=C/c1ccccc1OS(=O)(=O)c1ccc(C(F)(F)F)cc1 [Compound 82, 2-((E)-{2-[2-(3-pyrazin-2-yl-1,2,4-oxadiazol-5-yl)acetyl]hydrazono}methyl)phenyl 4-(trifluoromethyl)benzenesulfonate]
Second: Cc1cccnc1C(=O)N/N=C/c1ccccc1OS(=O)(=O)c1ccc(C(F)(F)F)cc1 [Compound 93, 2-((E)-{2-[(3-methylpyridin-2-yl)carbonyl]hydrazono}methyl)phenyl 4-(trifluoromethyl)benzenesulfonate]
The IC50 of the first is lower: 5 to 50 µM for the first, greater than 50 µM for the second.

First: CSc1ncccc1C(=O)N/N=C/c1ccccc1OS(=O)(=O)c1ccc(C(F)(F)F)cc1 [Compound 83, 2-[(E)-(2-{[2-(methylthio)pyridin-3-yl]carbonyl}hydrazono)methyl]phenyl 4-(trifluoromethyl)benzenesulfonate]
Second: CCOc1ccccc1C(=O)N/N=C/c1ccccc1OS(=O)(=O)c1ccc(C(F)(F)F)cc1 [Compound 85, 2-{(E)-[2-(2-ethoxybenzoyl)hydrazono]methyl}phenyl4-(trifluoromethyl)benzenesulfonate]
The IC50 of the first is lower: less than 5 µM for the first, greater than 50 µM for the second.

`O=C(CC1CCCC1)N/N=C/c1ccccc1OS(=O)(=O)c1ccc(C(F)(F)F)cc1` [Compound 84, 2-{(E)-[2-(2-cyclopentylacetyl)hydrazono]methyl}phenyl4-(trifluoromethyl)benzenesulfonate] and `O=C(CC1CCCO1)N/N=C/c1ccccc1OS(=O)(=O)c1ccc(C(F)(F)F)cc1` (stereo not shown) [Compound 95, 2-{(E)-[2-(2-tetrahydrofuran-2-ylacetyl)hydrazono]methyl}phenyl4-(trifluoromethyl)benzenesulfonate] cannot be ordered by IC50: less than 5 µM for the first, less than 5 µM for the second.

First: CN(C)c1cccc(OCC(=O)N/N=C/c2ccccc2OS(=O)(=O)c2ccc(C(F)(F)F)cc2)c1 [Compound 86, 2-[(E)-(2-{2-[3-(dimethylamino)phenoxy]acetyl}hydrazono)-methyl]phenyl 4-(trifluoromethyl)benzenesulfonate]
Second: O=C(Cc1cccc(N2CCCC2)c1)N/N=C/c1ccccc1OS(=O)(=O)c1ccc(C(F)(F)F)cc1 [Compound 98, 2-((E)-{2-[2-(3-pyrrolidin-1-ylphenyl)acetyl]hydrazono}methyl)phenyl4-(trifluoromethyl)benzenesulfonate]
The IC50 of the first is higher: greater than 50 µM for the first, 5 to 50 µM for the second. The second is the more potent here.

First: O=C(N/N=C/c1ccccc1OS(=O)(=O)c1ccc(C(F)(F)F)cc1)c1cnccc1C(F)(F)F [Compound 89, 2-[(E)-(2-{[4-(trifluoromethyl)pyridin-3-yl]carbonyl}hydrazono)methyl]phenyl 4-(trifluoromethyl)benzenesulfonate]
Second: O=C(N/N=C/c1ccccc1OS(=O)(=O)c1ccc(C(F)(F)F)cc1)C1CCN(Cc2ccccc2)C1=O (stereo not shown) [Compound 91, 2-((E)-{2-[(1-benzyl-2-oxopyrrolidin-3-yl)carbonyl]hydrazono}methyl)phenyl 4-(trifluoromethyl)benzenesulfonate]
The IC50 of the first is lower: 5 to 50 µM for the first, greater than 50 µM for the second.

`O=C(CC12CC3CC(CC(C3)C1)C2)N/N=C/c1ccccc1OS(=O)(=O)c1ccc(C(F)(F)F)cc1` [Compound 94, 2-((E)-{2-[2-(1-adamantyl)acetyl]hydrazono}methyl)phenyl4-(trifluoromethyl)benzenesulfonate] and `COc1cccc(CNc2cccc(CC(=O)N/N=C/c3ccccc3OS(=O)(=O)c3ccc(C(F)(F)F)cc3)c2)c1` [Compound 96, 2-{(E)-[2-(2-{3-[(3-methoxybenzyl)amino]phenyl}acetyl)hydrazono]methyl}phenyl 4-(trifluoromethyl)benzenesulfonate] cannot be ordered by IC50: greater than 50 µM for the first, greater than 50 µM for the second.

`CC(=O)Nc1ccc(CNc2cccc(CC(=O)N/N=C/c3ccccc3OS(=O)(=O)c3ccc(C(F)(F)F)cc3)c2)cc1` [Compound 99, 2-((E)-{2-[2-(3-{[4-(acetylamino)benzyl]amino}phenyl)acetyl]-hydrazono}methyl)phenyl 4-(trifluoromethyl)benzenesulfonate] gave an IC50 of less than 5 µM.

same assay, conditions: Hepatitis C virus, Huh-7, 72 h

In the case of `O=C(CC1CC2CCC1C2)N/N=C/c1ccccc1OS(=O)(=O)c1ccc(C(F)(F)F)cc1` (stereo not shown) [Compound 80, 2-{(E)-[2-(2-bicyclo[2.2.1]hept-2-ylacetyl)hydrazono]methyl}phenyl 4-(trifluoromethyl)benzenesulfonate], the IC50 is reported as less than 5 µM.

— patent US7026339B2, “Inhibitors of HCV NS5B polymerase” (priority 2003, dated 2006)
